# Measurements: publication PMC4811503, “A method for quantification of exportin-1 (XPO1) occupancy by Selective Inhibitor of Nuclear Export (SINE) compounds” (Oncotarget, 2015)
# Like-named read-outs stand apart in the source and are kept apart here.
# Key:
# [1] = system: nuclear export of the XPO1 cargo protein Rev-GFP in stably transfected U2OS cells; assay: Rev-GFP assay (nuclear retention of Rev-GFP); format: cell-based; details: Homo sapiens
# Excerpt: For this assay we utilized biotinylated LMB (b-LMB) as a tool compound to quantify the amount of XPO1 bound by SINE compounds (Figure 1). b-LMB was synthesized by coupling a biotin tag to LMB. We compared the inhibition of nuclear export and the cytotoxicity of b-LMB to that of the unmodified LMB. […] We then quantified the effects of these compounds on cell death in several cancer cell lines using an MTT cytotoxicity assay (Table 2).
# For the typical Rev-GFP assay, U2OS cells stably expressing Rev-GFP [42] were cultured in 96 well plates at 7,500 - 15,000 cells/well. […] After fixation cells were stained with DAPI (Invitrogen) for 10 minutes at room temperature. Cells were imaged with a Nikon fluorescent microscope at 10X magnification and intensity of the GFP and nuclear area were measured and recorded. Cells were scored as either GFP nuclear positive or negative. Number of positive cells were divided by total number of cells in order to calculate percentage of cells with nuclear GFP per well.
# XPO1 = target: T1, XPO1 (Mus musculus, UniProt Q6P5F9); assay: XPO1 occupancy assay in PBMCs from mice dosed orally with selinexor; format: in vivo
# T1 construct: the blood from the mice for each dose (n = 4) was pooled and PBMCs were immediately isolated; from tissue; host or cells: PBMCs from pooled blood of orally dosed mice
# Protocol: In order to have enough PBMCs to assay, the blood from the mice for each dose (n = 4) was pooled and PBMCs were immediately isolated. Mouse PBMCs were incubated with 1 nM b-LMB for 1.5 hours ex vivo then collected and prepared for the XPO1 occupancy assay.
# Using similar conditions, we sought to determine the duration of XPO1 occupancy by SINE compounds in mice. […] The mice were then terminally bled at 4, 24, 36, 48, 60, 72, and 96 hours post dose (n = 4 mice per dose per time point). Blood for each dose at each time point was pooled and PMBCs were isolated. Mouse PBMCs were incubated with 1 nM b-LMB for 1.5 hours ex vivo before being processed for the XPO1 occupancy assay. Both 3 and 10 mg/kg had time-dependent increases in the ratio of free-fraction XPO1, with 50% XPO1 occupancy being sustained for up to 72 hours post-treatment (Figure 5B).
# Human donor blood collected in Vacutainer® EDTA tubes (BD) (BioreclamationIVT) was purchased for peripheral blood mononuclear cells (PBMCs) isolation. […] Mouse whole blood was collected in Vacutainer® EDTA tubes (BD) and pooled from each group for each time point. Human and mouse PBMCs were separated by Ficoll (GE Healthcare) gradient. Human PMBCs were cryogenically preserved in Recovery™ Cell Culture Freezing Medium (Gibco). […] Freshly isolated PBMCs from control or selinexor-treated mice were treated ex vivo with 1 nM b-LMB for 1.5 hours prior to collection and processing for the XPO1 occupancy assay.
# Cells were collected, washed with PBS, and lysed with RIPA Buffer (Thermo Scientific) with protease inhibitors [Complete Ultra Tablets, Mini, EDTA-free, Easy pack (Roche), PhosStop Easy (Roche)]. A portion of the lysate was reserved (input) while the rest was added to washed Dynabeads MyOne Streptavidin T1 (Invitrogen) with RIPA Buffer. Samples were incubated overnight with constant rotation at 4°C. Beads were then washed 5 times with modified RIPA (150 mM NaCl, 50 mM Tris, 1% NP-40, 0.1% Na deoxycholate, 1 mM EDTA, pH 7.8). The reserved portion of lysates (input) and the beads were each mixed with Protein Simple buffer (Protein Simple), DTT (Invitrogen), and fluorescent standards (Protein Simple), then boiled at 95°C for 10 min. Eluates and inputs were analyzed using a capillary western method (Peggy Sue; Protein Simple) with the following primary antibodies: XPO1 (Santa Cruz) and β-actin (Santa Cruz). Capillary westerns were performed by SBH Sciences (Natick, MA). Peak areas corresponding to the protein molecular weight of XPO1 and actin were compared for sample inputs, while the ratio of XPO1 peak areas in eluate to input (ratio of bound or free-fraction XPO1) versus compound concentration were used in XLFit model 205 to calculate 50% and 90% occupancy curves.
# MM.1S = assay: MTT cytotoxicity assay; format: cell-based; details: Homo sapiens, MM1.S
# AML3 = assay: MTT cytotoxicity assay; format: cell-based
# Kasumi-6 = assay: MTT cytotoxicity assay; format: cell-based; details: read-out: Selinexor IC50 (μM)
# UCH2 = assay: MTT cytotoxicity assay; format: cell-based; details: read-out: Selinexor IC50 (μM)
# [2] = single oral dose, 4 hours post-dosing
# [3] = read-out: Selinexor IC50 (μM), MTT
# T1 sequence (Q6P5F9 whole entry): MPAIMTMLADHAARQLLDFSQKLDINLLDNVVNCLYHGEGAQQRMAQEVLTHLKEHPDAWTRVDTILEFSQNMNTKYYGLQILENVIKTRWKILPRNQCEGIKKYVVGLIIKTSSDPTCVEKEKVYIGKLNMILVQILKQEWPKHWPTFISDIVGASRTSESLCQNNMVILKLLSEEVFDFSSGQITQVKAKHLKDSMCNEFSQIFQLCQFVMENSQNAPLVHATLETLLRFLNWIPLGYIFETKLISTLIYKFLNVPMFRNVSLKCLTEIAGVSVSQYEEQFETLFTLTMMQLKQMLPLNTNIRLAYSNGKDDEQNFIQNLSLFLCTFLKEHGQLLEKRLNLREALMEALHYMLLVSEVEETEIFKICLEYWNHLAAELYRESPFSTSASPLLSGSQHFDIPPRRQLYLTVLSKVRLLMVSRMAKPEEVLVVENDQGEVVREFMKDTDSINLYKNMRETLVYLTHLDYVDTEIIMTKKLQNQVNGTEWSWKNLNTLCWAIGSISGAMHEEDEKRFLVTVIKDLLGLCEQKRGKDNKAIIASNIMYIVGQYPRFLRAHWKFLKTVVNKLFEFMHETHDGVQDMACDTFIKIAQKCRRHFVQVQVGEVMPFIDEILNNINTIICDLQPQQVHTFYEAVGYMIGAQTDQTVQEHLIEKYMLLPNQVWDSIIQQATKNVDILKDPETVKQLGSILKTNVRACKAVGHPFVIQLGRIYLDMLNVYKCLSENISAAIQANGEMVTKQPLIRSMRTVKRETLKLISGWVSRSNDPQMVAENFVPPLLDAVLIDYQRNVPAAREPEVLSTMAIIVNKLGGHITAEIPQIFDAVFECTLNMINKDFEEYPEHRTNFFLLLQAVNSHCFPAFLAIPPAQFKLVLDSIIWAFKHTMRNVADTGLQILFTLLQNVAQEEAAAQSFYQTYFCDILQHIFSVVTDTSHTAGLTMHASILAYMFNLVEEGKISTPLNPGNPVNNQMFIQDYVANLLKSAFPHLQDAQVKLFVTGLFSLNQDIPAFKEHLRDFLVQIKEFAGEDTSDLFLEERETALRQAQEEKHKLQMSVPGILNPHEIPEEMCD
smiles,measurement,setting,value
"O=C(/C=C\n1cnc(-c2cc(C(F)(F)F)cc(C(F)(F)F)c2)n1)NNc1cnccn1 [Selinexor, selinexor]",IC50,"[1]; 4 h, read-out: Rev-GFP (nM), U2OS cells stably expressing Rev-GFP, 4 hours treatment",40 nM
same,IC50,"[1]; 4 h, read-out: RevGFP Assay IC50 (μM), Rev-GFP U2OS, selinexor 4 hours, 4 hours post washout",20 nM
same,IC50,"[1]; read-out: Rev-GFP IC50 (μM), U2OS Rev-GFP cells",40 nM
same,IC50,"[1]; read-out: RevGFP Assay IC50 (μM), Rev-GFP U2OS, selinexor 4 hours, 0 hours post washout",10 nM
same,IC50,"[1]; read-out: RevGFP Assay IC50 (μM), Rev-GFP U2OS, selinexor 4 hours, 24 hours post washout",500 nM
same,IC50,"[1]; read-out: RevGFP Assay IC50 (μM), Rev-GFP U2OS, selinexor 4 hours, 48 hours post washout",1300 nM
same,IC50,"[1]; read-out: RevGFP Assay IC50 (μM), Rev-GFP U2OS, selinexor 4 hours, 72 hours post washout",6800 nM
same,IC50,"[1]; read-out: RevGFP Assay IC50 (μM), Rev-GFP U2OS, selinexor 4 hours, 96 hours post washout",11400 nM
same,time at which full saturation of XPO1 was achieved,XPO1; single oral dose of 3 mg/kg,4 to 24 h
same,time for which 50% XPO1 occupancy is sustained post-treatment,XPO1; single oral dose of 3 and 10 mg/kg,up to 72 hours
same,amount of selinexor required to occupy 50% of XPO1,XPO1; [2],1.84 mg/kg
same,amount of selinexor to achieve 90% XPO1 occupancy,XPO1; [2],> 10 mg/kg
same,IC50,"MM.1S; 72 hours, read-out: IC50",0.02 µM
same,IC50,MM.1S; [3],0.02 µM
same,IC50,"AML3; 72 hours, read-out: IC50",0.27 µM
same,IC50,AML3; [3],0.27 µM
same,IC50,Kasumi-6,0.53 µM
same,IC50,UCH2,30 µM
